“And” between values parts separate entries of the source, which are not always exact repeats. Equal values may be shown once. Where a name gives a salt, the structure may show the parent alone. Read-outs that look alike come from different tables or passages of the source.

In one test the test system is A549. Nature of the test: In vitro tumor cell proliferation, A549. The class given is cell-based, human. The conditions noted are these: many values given with an undefined *, read-out: In vitro Tumor Cell Proliferation (IC50, μM) Lung A549. Put shortly: (§1)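 SRB read-out: cells seeded overnight, 37° C; drug 3 d, medium plus fresh drug replaced, +4 d; TCA fix 60 min 4° C, 0.4% SRB stain 30 min. Alt. CyQUANT: drug 3 d, plates frozen −80° C before read.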

The next test concerns the target T1, cdk2/cyclin E (Homo sapiens, UniProt P24941).
T1 construct: made in house; host or cells: insect cells (baculovirus co-infection)
Nature of the test: Cyclin-Dependent Kinase 2 Assay (cdk2/cyclin E, GST-Rb substrate). In kind it is biochemical. The conditions noted are these: recombinant cdk2/cyclin E, 10 μM ATP, 30 min at 30° C., several values in a cell = separate determinations, read-out: CDK-2 Inhibition IC50. On the procedure: Substrate: GST-Rb as described above for cdk4/cyclin D1
Assay conditions for cdk2/cyclin E were identical to those for cdk4/cyclin D1 including the substrate. The concentration of recombinant cdk2/cyclin E in the assay was 0.1 μg per 100 μl assay. Incubation was for 30 min at 30° C.

A further test has as its target T2, cdk4/cyclin D1 (Homo sapiens, UniProt P11802).
T2 construct: made in house; host or cells: Sf9 insect cells (Bac-to-Bac baculovirus, pFastBac)
Nature of the test: Cyclin-dependent Kinase 4 Assay (cdk4/cyclin D1, GST-Rb substrate). In kind it is biochemical. The conditions noted are these: cdk4/cyclin D1 insect cell lysate, 10 μM ATP, 30 min at 37° C., several values = separate determinations, read-out: CDK4 Inhibition IC50. The gist of the method:
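IC50 against cdk4 measured by scintillation counting of bead-bound GST-Rb (0.5 μg) after filtration and four TNEN washes. Reaction was 30 min at 37 °C in HEPES pH 7.5 buffer with 10 mM MgCl2 and 1 mM EGTA. Enzyme source was 0.1 μg Sf9 lysate coinfected with cdk4 and cyclin D1.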

A further test relates to HT-29. Nature of the test: In vitro tumor cell proliferation, HT-29. The class given is cell-based, human. Particulars: many values given with an undefined *, read-out: In vitro Tumor Cell Proliferation (IC50, μM) Colon HT-29. Put shortly: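 Growth was quantified either with CyQUANT, plates frozen at −80° C after 3 days of drug, or by sulforhodamine B staining of TCA-fixed cells after 3 days of drug plus 4 days with fresh drug. Trypan blue-excluding HT-29 cells were plated overnight at 37° C before dosing.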

Another test concerns PC-3. Nature of the test: In vitro tumor cell proliferation, PC-3. The class given is cell-based, human. Particulars: many values given with an undefined *, read-out: In vitro Tumor Cell Proliferation (IC50, μM) Prostate PC-3. Put shortly:
as §1

A further test concerns MDA-MB-231. Nature of the test: In vitro tumor cell proliferation, MDA-MB-231. In kind it is cell-based, human. The conditions noted are these: sulforhodamine B or CyQUANT assay, many values given with an undefined *, read-out: In vitro Tumor Cell Proliferation (IC50, μM) Breast MDA-MB-231. Put shortly:
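Proliferation quantified by SRB staining of TCA-fixed cells after 3 days of drug plus 4 days with replenished drug, following overnight attachment at 37 °C.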

The test system of a further test is DU145. Nature of the test: In vitro tumor cell proliferation, DU145. The conditions noted are these: many values given with an undefined *, read-out: In vitro Tumor Cell Proliferation (IC50, μM) Prostate DU145. The class given is cell-based, human. Put shortly: as §1
For another test, the system named is MDA-MB-435. Nature of the test: In vitro tumor cell proliferation, MDA-MB-435. In kind it is cell-based. Particulars: values given with an undefined *, read-out: In vitro Tumor Cell Proliferation (IC50, μM) Breast MDA-MB-435. The gist of the method:
as §1

The subject of the next test is DMS-114. Nature of the test: In vitro tumor cell proliferation, DMS-114. In kind it is cell-based, human. The conditions noted are these: many values given with an undefined *, read-out: In vitro Tumor Cell Proliferation (IC50, μM) Lung DMS-114. The gist of the method:
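Human small cell lung carcinoma DMS-114 cells plated overnight, then drug-treated for 3 days, medium and drug renewed, and incubated 4 more days. Growth read by sulforhodamine B staining after TCA fixation; alternatively by CyQUANT after 3 days' drug exposure and freezing at −80 °C.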

In another test the test system is Colo-205. Nature of the test: In vitro tumor cell proliferation, Colo-205. Particulars: values given with an undefined *, read-out: In vitro Tumor Cell Proliferation (IC50, μM) Colon Colo-205. The class given is cell-based. The gist of the method:
as §1

Setting [1] is: Homo sapiens, MDA-MB-231, MDA-MB-231.
The mark [2] stands for this setting: Homo sapiens, MDA-MB-435, MDA-MB-435.
[3] abbreviates: Homo sapiens, COLO 205, Colo-205.

T2 sequence (P11802 whole entry): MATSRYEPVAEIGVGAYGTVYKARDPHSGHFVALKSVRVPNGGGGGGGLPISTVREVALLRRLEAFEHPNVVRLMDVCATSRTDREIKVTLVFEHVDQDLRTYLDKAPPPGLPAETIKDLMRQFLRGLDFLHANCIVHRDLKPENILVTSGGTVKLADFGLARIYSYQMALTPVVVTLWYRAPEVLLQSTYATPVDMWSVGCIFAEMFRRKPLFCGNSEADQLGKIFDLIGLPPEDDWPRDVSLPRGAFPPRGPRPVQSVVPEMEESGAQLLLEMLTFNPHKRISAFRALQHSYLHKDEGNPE
T2 sequence (P24385 whole entry partner): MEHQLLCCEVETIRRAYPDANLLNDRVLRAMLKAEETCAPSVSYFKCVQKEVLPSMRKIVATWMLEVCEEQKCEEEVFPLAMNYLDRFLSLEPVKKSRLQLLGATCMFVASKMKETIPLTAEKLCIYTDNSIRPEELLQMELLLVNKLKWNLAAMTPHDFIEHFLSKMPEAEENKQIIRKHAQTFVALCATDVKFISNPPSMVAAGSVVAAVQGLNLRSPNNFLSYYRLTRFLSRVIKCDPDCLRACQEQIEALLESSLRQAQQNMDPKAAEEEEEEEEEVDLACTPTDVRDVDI

As for `N[C@H]1CC[C@H](Nc2nc(NC3CCN(Cc4ccccc4C(F)(F)F)CC3)c3ncn(C4CCCC4)c3n2)CC1` [Example 147-b, 2-[Trans-(4-aminocyclohexyl)amino]-6-[4-[1-(2-trifluoromethylbenzyl)]piperidinylamino]-9-cyclopentylpurine trihydrochloride], the IC50 in the test with A549 (A549, trihydrochloride) is 0.4 µM; in the test with A549 (Homo sapiens, A549, A549) it was 0.42 µM; at cdk2/cyclin E, 1200 nM and 920 nM; at cdk4/cyclin D1, 2400 nM and 4500 nM; with HT-29 (HT-29, trihydrochloride), 0.61 µM; with HT-29 (Homo sapiens, HT-29, HT-29), 0.65 µM. Further, the IC50 is 0.63 µM in the test on PC-3 (Homo sapiens, PC-3, PC-3); 0.78 µM in the test on PC-3 (PC-3, trihydrochloride); 0.64 µM in the test with MDA-MB-231 (setting [1]); 0.73 µM with MDA-MB-231 (MDA-MB-231, trihydrochloride); 0.61 µM in the test on DU145 (DU145, trihydrochloride); 0.46 µM in the test on DU145 (Homo sapiens, DU-145, DU145). Also, the IC50 came to 0.99 µM with MDA-MB-435 (setting [2]); 0.95 µM in the test on MDA-MB-435 (MDA-MB-435, trihydrochloride); 0.82 µM with DMS-114 (DMS-114, trihydrochloride); 0.92 µM in the test with DMS-114 (Homo sapiens, DMS-114, DMS-114); 0.62 µM in the test on Colo-205 (Colo-205, trihydrochloride); 0.48 µM in the test on Colo-205 (setting [3]).
Take `COc1cc(CN2CCC(Nc3nc(N[C@H]4CC[C@H](N)CC4)nc4c3ncn4C3CCCC3)CC2)cc(OC)c1` [Example 147-c, 2-[Trans-(4-aminocyclohexyl)amino]-6-[4-[1-(3,5-dimethoxybenzyl)]piperidinylamino-9-cyclopentylpurinetrihydrochloride]: the IC50 was 0.24 µM with A549 (A549, trihydrochloride); 0.18 µM with A549 (Homo sapiens, A549, A549); 560 nM and 270 nM and 450 nM at cdk2/cyclin E; 670 nM and 600 nM on cdk4/cyclin D1; 0.3 µM in the test with HT-29 (HT-29, trihydrochloride); 0.32 µM with HT-29 (Homo sapiens, HT-29, HT-29). Further, the IC50 amounted to 0.22 µM in the test with PC-3 (Homo sapiens, PC-3, PC-3); 0.33 µM in the test on PC-3 (PC-3, trihydrochloride); 0.23 µM in the test with MDA-MB-231 (setting [1]); 0.27 µM in the test with MDA-MB-231 (MDA-MB-231, trihydrochloride); 0.3 µM in the test with DU145 (DU145, trihydrochloride); 0.21 µM in the test with DU145 (Homo sapiens, DU-145, DU145). In addition, the IC50 in the test on MDA-MB-435 (setting [2]) came out at 0.33 µM; in the test with MDA-MB-435 (MDA-MB-435, trihydrochloride) it was 0.34 µM; in the test on DMS-114 (DMS-114, trihydrochloride), 0.32 µM; in the test on DMS-114 (Homo sapiens, DMS-114, DMS-114), 0.3 µM; in the test on Colo-205 (Colo-205, trihydrochloride) it was 0.2 µM; in the test with Colo-205 (setting [3]) it was 0.19 µM.
With `N[C@H]1CC[C@H](Nc2nc(NC3CCN(Cc4cc(C(F)(F)F)cc(C(F)(F)F)c4)CC3)c3ncn(C4CCCC4)c3n2)CC1` [Example 147-d, 2-[Trans-(4-aminocyclohexyl)amino]-6-[4-[1-[3,5-bis(trifluoromethyl)benzyl]]piperidinylamino]-9-cyclopentylpurine trihydrochloride], the IC50 is 0.23 µM and 0.25 µM in the test on A549 (A549, trihydrochloride); 890 nM and 530 nM and 750 nM at cdk2/cyclin E (trihydrochloride); 64000 nM on cdk4/cyclin D1; 0.44 µM and 0.34 µM with HT-29 (HT-29, trihydrochloride); 0.66 µM in the test on PC-3 (PC-3); 0.47 µM and 0.42 µM in the test on MDA-MB-231 (MDA-MB-231, trihydrochloride). Moreover, the IC50 with DU145 (DU145, trihydrochloride) was 0.69 µM and 0.58 µM; in the test on MDA-MB-435 (MDA-MB-435, trihydrochloride) it was 0.69 µM and 0.94 µM; in the test with DMS-114 (DMS-114, trihydrochloride), 0.34 µM and 0.36 µM; in the test with Colo-205 (Colo-205, trihydrochloride), 0.38 µM and 0.52 µM.
For the molecule `N[C@H]1CC[C@H](Nc2nc(NC3CCN(Cc4cccc(F)c4F)CC3)c3ncn(C4CCCC4)c3n2)CC1` [Example 147-e, 2-[Trans-(4-aminocyclohexyl)amino]-6-[4-1-(2,3-difluorobenzyl)]piperidinylamino]-9-cyclopentylpurine trihydrochloride], the IC50 in the test on A549 (A549, trihydrochloride) is 0.3 µM; in the test with A549 (Homo sapiens, A549, A549) it was 0.35 µM; on cdk2/cyclin E, 340 nM and 230 nM and 460 nM; on cdk4/cyclin D1 it was 2700 nM and 4600 nM; with HT-29 (HT-29, trihydrochloride) it was 0.3 µM; in the test with HT-29 (Homo sapiens, HT-29, HT-29) it was 0.59 µM. Also, the IC50 in the test with PC-3 (Homo sapiens, PC-3, PC-3) worked out at 0.47 µM; with PC-3 (PC-3, trihydrochloride), 0.35 µM; in the test with MDA-MB-231 (setting [1]), 0.58 µM; with MDA-MB-231 (MDA-MB-231, trihydrochloride), 0.3 µM; in the test on DU145 (DU145, trihydrochloride) it was 0.41 µM; in the test on DU145 (Homo sapiens, DU-145, DU145), 0.35 µM. The IC50 in the test on MDA-MB-435 (setting [2]) was found to be 0.62 µM; with MDA-MB-435 (MDA-MB-435, trihydrochloride) it was 0.6 µM; in the test on DMS-114 (DMS-114, trihydrochloride) it was 0.5 µM; in the test on DMS-114 (Homo sapiens, DMS-114, DMS-114), 0.58 µM; in the test on Colo-205 (Colo-205, trihydrochloride) it was 0.32 µM; in the test on Colo-205 (setting [3]) it was 0.34 µM.
Regarding `N[C@H]1CC[C@H](Nc2nc(NC3CCN(Cc4cc(F)cc(F)c4)CC3)c3ncn(C4CCCC4)c3n2)CC1` [Example 147-g, 2-[Trans-(4-aminocyclohexyl)amino]-6-[4-1 1-(3.5-difluorobenzyl)]piperidinylamino]-9-cyclopentylpurine trihydrochloride], the IC50 in the test on A549 (A549, trihydrochloride) is 0.14 µM; with A549 (Homo sapiens, A549, A549) it was 0.19 µM; at cdk2/cyclin E it was 330 nM and 290 nM; on cdk4/cyclin D1, 3500 nM and 2000 nM; with HT-29 (HT-29, trihydrochloride), 0.29 µM; in the test on PC-3 (Homo sapiens, PC-3, PC-3), 0.21 µM. Besides, the IC50 turned out to be 0.39 µM in the test with PC-3 (PC-3, trihydrochloride); 0.29 µM in the test with MDA-MB-231 (setting [1]); 0.25 µM in the test on DU145 (DU145, trihydrochloride); 0.22 µM in the test with DU145 (Homo sapiens, DU-145, DU145); 0.3 µM in the test on MDA-MB-435 (setting [2]); 0.41 µM in the test on MDA-MB-435 (MDA-MB-435, trihydrochloride). In addition, the IC50 with DMS-114 (DMS-114, trihydrochloride) was 0.26 µM; in the test on DMS-114 (Homo sapiens, DMS-114, DMS-114), 0.32 µM; in the test on Colo-205 (Colo-205, trihydrochloride), 0.13 µM; with Colo-205 (setting [3]) it was 0.18 µM.
For the molecule `N[C@H]1CC[C@H](Nc2nc(NC3CCN(Cc4ccc(F)cc4F)CC3)c3ncn(C4CCCC4)c3n2)CC1` [Example 147-h, 2-[Trans-(4-aminocyclohexyl)amino]-6-[4-[1-(2,4-difluorobenzyl)piperidinylamino]-9-cyclopentylpurinetrihydrochloride], the IC50 was 0.16 µM in the test on A549 (A549, trihydrochloride); 0.22 µM with A549 (Homo sapiens, A549, A549); 100 nM and 240 nM at cdk2/cyclin E; 2800 nM and 1800 nM at cdk4/cyclin D1; 0.47 µM in the test on HT-29 (HT-29, trihydrochloride); 0.42 µM in the test with HT-29 (Homo sapiens, HT-29, HT-29). For the same molecule, the IC50 in the test with PC-3 (Homo sapiens, PC-3, PC-3) was found to be 0.33 µM; in the test with PC-3 (PC-3, trihydrochloride) it was 0.58 µM; in the test with MDA-MB-231 (setting [1]), 0.47 µM; in the test with DU145 (DU145, trihydrochloride), 0.36 µM; in the test on DU145 (Homo sapiens, DU-145, DU145) it was 0.34 µM; with MDA-MB-435 (setting [2]), 0.48 µM. Also, the IC50 in the test on MDA-MB-435 (MDA-MB-435, trihydrochloride) was 0.78 µM; in the test with DMS-114 (DMS-114, trihydrochloride), 0.47 µM; with DMS-114 (Homo sapiens, DMS-114, DMS-114) it was 0.94 µM; in the test on Colo-205 (Colo-205, trihydrochloride), 0.21 µM; in the test on Colo-205 (setting [3]) it was 0.34 µM.
